Measured values published in article PMC5603512, “Discovery, Semisynthesis, Antiparasitic and Cytotoxic Evaluation of 14-Membered Resorcylic Acid Lactones and Their Derivatives” (Scientific Reports, 2017).

Tests used:
Plasmodium falciparum = experiment: Antiplasmodial assay (PicoGreen growth inhibition in infected human erythrocytes); assay type: cell-based; conditions: Erythrocyte, in vitro, W2 and 3D7 strains cultured, strain of the values not stated, read-out: Plasmodium falciparum IC50
Protocol: Activity against the causative agent of malaria was performed by culturing human erythrocytes and infecting them with P. falciparum, as described by Trager and Jensen[36]. Briefly, the W2 (Chloroquine resistant) and 3D7 (Chloroquine sensitive) strains of P. falciparum were cultured in RPMI 1640 medium (Sigma-Aldrich, USA) supplemented with 10% human serum (from O+ blood) at a hematocrit of 2% erythrocytes (O+) at 37 °C in a gas mixture of 5% CO2, 5% O2, and 90% N2. Parasites were synchronized by a temperature cycling technique as described by Almanza et al.[37]

Leishmania donovani = experiment: Antileishmanial assay (PicoGreen); assay type: cell-based; conditions: in vitro, read-out: Leishmania donovani IC50
Protocol: The anti-leishmania activity was evaluated following the protocol described by Calderon et al.[39], using the fluorescent DNA intercalator PicoGreen (Invitrogen, USA). The species responsible for visceral leishmaniasis, L. donovani, was used for the assays.

Trypanosoma cruzi = experiment: Antitrypanosomal assay (beta-galactosidase reporter, intracellular amastigotes in Vero cells); assay type: cell-based; conditions: Tulahuen clone C4, intracellular amastigotes in Vero cells, 120 h; for IC50: Trypanosoma cruzi, read-out: Trypanosoma cruzi IC50; on all read-outs here: key: I: Inactive
Protocol: Briefly, the expression of the reporter gene for beta-galactosidase (β-Gal) in the Tulahuen clone C4 of T. cruzi is assessed by colorimetry at 570 nm, which correlates with the parasite growth. Assays were performed on the intracellular amastigote form of the parasite infecting African green monkey kidney (Vero) cells, incubated for 120 h at 37 °C with 5% CO2.

[1] = Cytotoxicity SRB assay, HCT-116; conditions: human
Protocol: (§1) All of the compounds were also evaluated for their cytotoxic properties against six human cancer cell lines (lung carcinoma epithelian (A549), colon carcinoma (HCT-116), pancreatic carcinoma (BXPC-3), breast cancer (MCF-7), cervical epithelium (HeLa), and erythroleukemic (K562)) and a human umbilical vein endothelial cell (HUVEC) line (Table 2).
(§2) The cytotoxicity against HCT-116, BXPC-3, HeLa, MCF-7, A-549, and HUVEC cell lines was evaluated using the SRB method. The cytotoxicity against K562 and Vero cell lines was evaluated using the MTT method. Adriamycin was used as a positive control. All cells were cultivated in T-75 flasks containing 10% Fetal Bovine Serum (FBS), Dulbeco’s Modified Eagle Medium (DMEM) with 2 mM L-glutamine, and 1% penicillin-streptomycin at 37 °C in a humidified atmosphere with 5% CO2. For SRB assay, cells in their log phase of growth were seeded into 96 well micro plates (4 × 10^4 cells per well) and followed by treating with test samples at 10 μM or DMSO. After incubation at 37 °C for 72 h, the cells were fixed with the cold 20% (w/v) TCA for 2 h and stained with Sulforhodamine B (SRB) dye for 0.5 h. The protein-bound dye is dissolved in Tris base solution for OD determination at 540 nm on an ELISA Plate Reader. For MTT assay, cells (5 × 10^3 cells per well) were plated in 96 well micro plates. After cell attachment overnight, new medium containing test compounds or DMSO was added. The plate was incubated for 48 h at 37 °C and incubated with 3-(4,5-dimethylthiazol-2-yl)-2,5-diphenyltetrazolium bromide (MTT) for additional 2–4 hours. The assay plate was then read at 490 nm on an ELISA Plate Reader. The data were obtained from experiments carried out in triplicate.

[2] = Cytotoxicity SRB assay, BXPC-3; conditions: human
Protocol: as §1, §2

[3] = Cytotoxicity SRB assay, HeLa; conditions: human
Protocol: as §1, §2

[4] = Cytotoxicity SRB assay, MCF-7; conditions: human
Protocol: as §1, §2

[5] = Cytotoxicity SRB assay, A-549; conditions: human
Protocol: as §1, §2

[6] = Cytotoxicity MTT assay, K562; conditions: human
Protocol: as §1, §2

[7] = Cytotoxicity against the panel of six human cancer cell lines and HUVEC
Protocol: as §1, §2

[8] = Chemical stability / interconversion in solvents; assay type: physicochemical; conditions: MeOH, EtOH, MeOH-d4 (except H2O), stationary state, within a week
Protocol: Compounds 1–6 and 11–27 were designed and synthesized through one or two-step semisynthetic reaction with high yields ranging from 65–95% from 7 and 8 (Fig. 1). The structures of new derivatives 12, 14–19, 21–22, 24, and 27 were identified by extensive spectroscopic methods including HRESIMS, ^1H NMR, and ^13C NMR. Compound 1 was prepared in yield of 95% through one-step acetonide reaction from 8. Other acetonide derivatives (11, 17, 18, 20, 23, 25, and 26) were also prepared with the same yields. Chlorination of compound 8 with sulfuryl chloride[33] followed by selective reduction with 10% Pd-C under H2 atmosphere led to the natural compound 2 (68%, yield). Acylation reaction was carried out by reaction of anhydride with the corresponding materials (1–3, and 6–8) in high yields (85–95%). In order to prepare 6, oxidation of the allyl alcohol 8 was examined under various oxidation conditions (PCC, PDC, MnO2, DMP, and IBX). However, only DMP and IBX enabled the selective oxidation of the allyl alcohol to give 6 in 65% and 35% yields, respectively (Fig. 3). […] Compounds 3–6 are diastereomers differing from each other by the absolute configurations of the 4′, 5′-diol chiral centers. The proportions of compounds 3–6 were in dynamic equilibrium, and the final ratios of 3–6 were approximately 8: 2: 5: 6 (Fig. 4). […]

[9] = Toxicity against Vero cells (MTT); assay type: cell-based, African green monkey; conditions: African green monkey, MTT, 48 h
Protocol: (§3) It should be emphasized that toxicity is a major concern of drug discovery and development. The above active compounds were evaluated for in vitro toxicity against a mammalian kidney cell line (Vero). The selectivity index (SI) was used as the evaluation parameter of drug potential of the test samples by comparing the toxicity on the Vero cell line (CC50) and the selective inhibitory effect on P. falciparum, L. donovani or T. cruzi (IC50) calculated here as CC50/IC50.
(§4) Adriamycin was used as a positive control.

[10] = Cytotoxicity SRB assay, HUVEC; conditions: human
Protocol: as §1, §2

Vero cells = experiment: Toxicity against Vero cells (MTT); assay type: cell-based, African green monkey; conditions: in vitro toxicity against mammalian kidney cell line (Vero)
Protocol: as §3, §4

P. falciparum lines 3D7 = tested on: P. falciparum lines 3D7; design: method as in PMID 20429578, PMID 20429578; conditions: line 3D7; read-out: IC50 against P. falciparum line 3D7; cited from earlier work
P. falciparum lines Dd2 = conditions: line Dd2; read-out: IC50 against P. falciparum line Dd2; cited from earlier work
[11] = BXPC-3 pancreatic carcinoma cells
[12] = Vero cells (mammalian kidney cell line)
[13] = HUVEC (umbilical vein endothelial cells)

Compound	IC50 (Plasmodium falciparum) [µM]	IC50 (Leishmania donovani) [µM]	IC50 at 72 h ([1]; HCT-116 colon carcinoma cells) [µM]	IC50 at 72 h [2, 11] [µM]	IC50 at 72 h ([3]; HeLa cervical epithelium cells) [µM]	IC50 at 72 h ([4]; MCF-7 breast cancer cells) [µM]	IC50 at 72 h ([5]; A-549 lung carcinoma cells) [µM]	IC50 at 48 h ([6]; K562 erythroleukemic cells) [µM]	IC50 [7] [µM]	CC50 at 48 h [9, 12] [µM]	IC50 at 72 h [10, 13] [µM]	also measured
COc1cc(O)c2c(c1)/C=C/C[C@@H](O)[C@H](O)C(=O)/C=C/C[C@H](C)OC2=O [Compound 3]	> 30.7	9.11	> 10	> 10	7.18	> 10	> 10	> 10	< 10	–	–	Trypanosoma cruzi IC50 (Trypanosoma cruzi): I; Stability in protic solvents [8]: quite stable
COc1cc(O)c2c(c1)/C=C/C[C@H](O)[C@H](O)C(=O)/C=C/C[C@H](C)OC2=O [Compound 6]	14.9	1.93	> 10	8.47	> 10	> 10	> 10	> 10	< 10	3.2	8.59	Stability in protic solvents [8]: subtle chemical conversion of 6 to 3–5
COc1cc(O)c2c(c1)/C=C/C[C@H](O)[C@H](O)C(=O)/C=C\C[C@H](C)OC2=O [Compound 7]	11	2.21	1.09	5.07	> 10	> 10	> 10	> 10	< 10	< 1	> 10	–
COc1cc2c(c(OC(C)=O)c1)C(=O)O[C@@H](C)C/C=C/[C@@H]1OC(C)(C)O[C@H]1[C@@H](OC(C)=O)C/C=C/2 [Compound 11]	1.84	9.22	> 10	> 10	> 10	> 10	> 10	> 10	–	339	> 10	IC50 (Trypanosoma cruzi): 11.9 µM; Toxicity (in words) (Vero cells): non-toxic
COc1cc(O)c2c(c1)/C=C/C[C@H](OC(C)=O)[C@H](OC(C)=O)[C@@H](OC(C)=O)/C=C/C[C@H](C)OC2=O [Compound 12]	8.36	15.7	> 10	> 10	> 10	> 10	> 10	> 10	–	1520	> 10	IC50 (Trypanosoma cruzi): 17.2 µM; Toxicity (in words) (Vero cells): non-toxic
COc1cc2c(c(OC(C)=O)c1)C(=O)O[C@@H](C)C/C=C/[C@H](OC(C)=O)[C@@H](OC(C)=O)[C@@H](OC(C)=O)C/C=C/2 [Compound 13]	6.95	> 15.7	> 10	> 10	> 10	> 10	> 10	> 10	–	427	> 10	Trypanosoma cruzi IC50 (Trypanosoma cruzi): I; Toxicity (in words) (Vero cells): non-toxic
COc1cc2c(c(OC(=O)c3ccco3)c1)C(=O)O[C@@H](C)C/C=C/[C@H](OC(=O)c1ccco1)[C@@H](OC(=O)c1ccco1)[C@@H](OC(=O)c1ccco1)C/C=C/2 [Compound 15]	22.2	> 15.7	–	–	–	–	–	–	–	1570	–	Trypanosoma cruzi IC50 (Trypanosoma cruzi): I; Toxicity (in words) (Vero cells): non-toxic
COc1cc(O)c2c(c1)/C=C/C[C@@H]1OC(C)(C)O[C@@H]1C(=O)/C=C/C[C@H](C)OC2=O [Compound 20]	> 30.7	6.46	–	–	–	–	–	–	< 10	–	–	CC50 at 48 h [9]: < 1 µM; IC50 at 72 h [1]: > 10 µM; IC50 at 72 h [2]: > 10 µM; IC50 at 72 h [3]: 7.21 µM; IC50 at 72 h [4]: > 10 µM; IC50 at 72 h [5]: > 10 µM; IC50 at 48 h [6]: > 10 µM; IC50 at 72 h [10]: 9.78 µM
COc1cc2c(c(OC(C)=O)c1)C(=O)O[C@@H](C)C/C=C/C(=O)[C@@H](OC(C)=O)[C@@H](OC(C)=O)C/C=C/2 [Compound 21]	> 30.7	3.69	> 10	> 10	6.95	> 10	> 10	> 10	< 10	5.8	4.52	–
COc1cc(O)c2c(c1)/C=C/C[C@H]1OC(C)(C)O[C@@H]1C(=O)/C=C/C[C@H](C)OC2=O [Compound 23]	> 30.7	> 15.7	–	–	–	–	–	–	< 10	–	–	Trypanosoma cruzi IC50 (Trypanosoma cruzi): I; IC50 at 72 h [1]: 3.51 µM; IC50 at 72 h [3]: 6.59 µM; IC50 at 72 h [5]: 9.75 µM; IC50 at 72 h [10]: 7.51 µM
COc1cc(O)c2c(c1)C=CCC1OC(C)(C)OC1C(=O)C=CCC(C)OC2=O (centres unmarked) [Compound 26]	8.95	1.24	–	–	–	–	–	–	< 10	–	–	CC50 at 48 h [9]: < 1 µM; IC50 at 72 h [1]: 9.16 µM; IC50 at 72 h [2]: 7.22 µM; IC50 at 72 h [3]: 4.02 µM; IC50 at 72 h [4]: > 10 µM; IC50 at 72 h [5]: > 10 µM; IC50 at 48 h [6]: > 10 µM; IC50 at 72 h [10]: 4.81 µM
COc1cc(O)c2c(c1)/C=C/C[C@H](OC(C)=O)[C@H](OC(C)=O)C(=O)/C=C\C[C@H](C)OC2=O [Compound 27]	> 30.7	3.14	2.83	–	3.85	–	7.3	–	< 10	< 1	5.9	–
COc1cc(O)c2c(c1)/C=C/C[C@H](O)[C@H](O)[C@@H](O)CCC[C@H](C)OC2=O [Paecilomycin E, paecilomycin E]	–	–	–	–	–	–	–	–	–	–	–	IC50 (P. falciparum lines 3D7): 0.02 µM; IC50 (P. falciparum lines Dd2): 8.8 µM
COc1cc(O)c2c(c1)/C=C/C[C@H](O)[C@H](O)[C@H](O)CCC[C@H](C)OC2=O [Paecilomycin F, paecilomycin F]	–	–	–	–	–	–	–	–	–	–	–	IC50 (P. falciparum lines 3D7): 1.1 µM; IC50 (P. falciparum lines Dd2): 1.7 µM
